Experimental findings from ChEMBL document CHEMBL1147674, “Evolution of the thienopyridine class of inhibitors of IkappaB kinase-beta: part I: hit-to-lead strategies” (J Med Chem, 2006) are described below.

Series [1] is described as follows: Inhibition of NF-kappaB luciferase reporter gene in HeLa cells at 10 uM. In kind it is functional. The settings on record: Homo sapiens.
Series [2] is described as follows: Permeability from apical to basolateral side of Caco-2 cell membrane. The format is ADME, cell-based. The settings on record: human, read-out: permeability.
Series [3] relates to HeLa. In words: Viability of HeLa cells at 10 uM by alomar blue assay. The format is functional, Homo sapiens.
For series [4], the target named is Tyrosine-protein kinase BTK (Homo sapiens, UniProt Q06187). In words: Inhibition of BTK.
Chain of Tyrosine-protein kinase BTK (Q06187 whole entry): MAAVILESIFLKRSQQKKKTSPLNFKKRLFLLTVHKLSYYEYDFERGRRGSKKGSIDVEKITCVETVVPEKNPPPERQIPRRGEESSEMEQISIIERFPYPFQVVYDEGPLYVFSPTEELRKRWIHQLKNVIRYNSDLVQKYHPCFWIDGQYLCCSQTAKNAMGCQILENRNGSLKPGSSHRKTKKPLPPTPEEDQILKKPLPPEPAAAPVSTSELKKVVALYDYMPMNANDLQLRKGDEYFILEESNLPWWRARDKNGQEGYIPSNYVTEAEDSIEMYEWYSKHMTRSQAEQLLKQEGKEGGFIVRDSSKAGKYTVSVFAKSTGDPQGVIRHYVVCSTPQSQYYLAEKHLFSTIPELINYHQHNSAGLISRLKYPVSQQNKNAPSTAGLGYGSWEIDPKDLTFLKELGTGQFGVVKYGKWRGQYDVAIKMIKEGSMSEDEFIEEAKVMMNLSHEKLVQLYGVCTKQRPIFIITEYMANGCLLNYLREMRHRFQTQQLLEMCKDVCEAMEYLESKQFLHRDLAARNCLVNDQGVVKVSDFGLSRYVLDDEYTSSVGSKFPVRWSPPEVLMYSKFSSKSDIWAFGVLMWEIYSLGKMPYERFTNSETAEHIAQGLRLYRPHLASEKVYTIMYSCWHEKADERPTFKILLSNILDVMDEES
For series [5], the system named is HeLa. In words: Viability of HeLa cells at 50 uM by alomar blue assay. In kind it is functional, Homo sapiens.
The target in another series is Cytochrome P450 2D6 (Homo sapiens, UniProt P10635). In words: Inhibition of CYP2D6. In kind it is ADME.
Chain of Cytochrome P450 2D6 (P10635 whole entry): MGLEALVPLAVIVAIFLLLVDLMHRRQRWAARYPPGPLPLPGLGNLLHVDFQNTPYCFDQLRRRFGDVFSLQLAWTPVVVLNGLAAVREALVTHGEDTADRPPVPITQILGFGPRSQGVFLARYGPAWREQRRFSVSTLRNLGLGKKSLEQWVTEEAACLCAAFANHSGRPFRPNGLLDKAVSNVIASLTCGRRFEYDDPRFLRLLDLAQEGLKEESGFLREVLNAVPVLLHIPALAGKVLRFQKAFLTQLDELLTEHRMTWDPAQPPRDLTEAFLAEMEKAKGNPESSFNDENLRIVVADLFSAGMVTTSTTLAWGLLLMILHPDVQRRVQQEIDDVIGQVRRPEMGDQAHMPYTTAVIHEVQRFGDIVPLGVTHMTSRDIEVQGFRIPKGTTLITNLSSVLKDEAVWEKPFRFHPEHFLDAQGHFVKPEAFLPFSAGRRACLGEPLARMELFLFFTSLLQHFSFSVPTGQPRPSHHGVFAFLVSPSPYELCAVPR
Another series concerns the target Cytochrome P450 3A4 (Homo sapiens, UniProt P08684). In words: Inhibition of CYP3A4. The format is ADME.
The nature of series [6]: Solubility at pH 7.4. The format is physicochemical. The settings on record: buffer.
The target in series [7] is T1, Inhibitor of nuclear factor kappa-B kinase subunit alpha (Homo sapiens, UniProt O15111).
T1 sequence (O15111 whole entry): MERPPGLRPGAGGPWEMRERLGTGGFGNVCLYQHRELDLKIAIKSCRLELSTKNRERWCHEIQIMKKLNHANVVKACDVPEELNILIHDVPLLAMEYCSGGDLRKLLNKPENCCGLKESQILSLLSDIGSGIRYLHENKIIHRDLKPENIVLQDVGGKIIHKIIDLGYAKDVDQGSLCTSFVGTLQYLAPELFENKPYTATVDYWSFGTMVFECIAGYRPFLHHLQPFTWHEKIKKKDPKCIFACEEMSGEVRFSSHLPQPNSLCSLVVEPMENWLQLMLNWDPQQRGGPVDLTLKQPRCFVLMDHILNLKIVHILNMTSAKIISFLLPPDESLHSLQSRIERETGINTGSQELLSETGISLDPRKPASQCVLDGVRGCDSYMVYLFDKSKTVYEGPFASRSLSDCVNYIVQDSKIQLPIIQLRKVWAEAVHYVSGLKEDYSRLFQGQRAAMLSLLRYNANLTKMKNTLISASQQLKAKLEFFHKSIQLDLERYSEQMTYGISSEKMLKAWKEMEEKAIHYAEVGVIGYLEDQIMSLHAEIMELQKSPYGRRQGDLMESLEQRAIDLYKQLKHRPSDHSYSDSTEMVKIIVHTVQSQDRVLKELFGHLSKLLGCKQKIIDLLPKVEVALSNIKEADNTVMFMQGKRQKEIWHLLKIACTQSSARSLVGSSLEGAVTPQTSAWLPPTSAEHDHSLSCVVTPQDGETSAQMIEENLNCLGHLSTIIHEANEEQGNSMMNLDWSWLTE
In words: Inhibition of IKK alpha.

A further series concerns the target Cytochrome P450 2C9 (Homo sapiens, UniProt P11712). In words: Inhibition of CYP2C9. In kind it is ADME.
A short description of series [8]: Inhibition of ICAM1 expression in HeLa cells at 10 uM. The format is functional. The settings on record: Homo sapiens.
The nature of series [9]: Half life in human liver microsome. The format is ADME. The settings on record: liver microsomes.
The target of series [10] is T2, Inhibitor of nuclear factor kappa-B kinase subunit beta (Homo sapiens, UniProt O14920).
T2 sequence (O14920 whole entry): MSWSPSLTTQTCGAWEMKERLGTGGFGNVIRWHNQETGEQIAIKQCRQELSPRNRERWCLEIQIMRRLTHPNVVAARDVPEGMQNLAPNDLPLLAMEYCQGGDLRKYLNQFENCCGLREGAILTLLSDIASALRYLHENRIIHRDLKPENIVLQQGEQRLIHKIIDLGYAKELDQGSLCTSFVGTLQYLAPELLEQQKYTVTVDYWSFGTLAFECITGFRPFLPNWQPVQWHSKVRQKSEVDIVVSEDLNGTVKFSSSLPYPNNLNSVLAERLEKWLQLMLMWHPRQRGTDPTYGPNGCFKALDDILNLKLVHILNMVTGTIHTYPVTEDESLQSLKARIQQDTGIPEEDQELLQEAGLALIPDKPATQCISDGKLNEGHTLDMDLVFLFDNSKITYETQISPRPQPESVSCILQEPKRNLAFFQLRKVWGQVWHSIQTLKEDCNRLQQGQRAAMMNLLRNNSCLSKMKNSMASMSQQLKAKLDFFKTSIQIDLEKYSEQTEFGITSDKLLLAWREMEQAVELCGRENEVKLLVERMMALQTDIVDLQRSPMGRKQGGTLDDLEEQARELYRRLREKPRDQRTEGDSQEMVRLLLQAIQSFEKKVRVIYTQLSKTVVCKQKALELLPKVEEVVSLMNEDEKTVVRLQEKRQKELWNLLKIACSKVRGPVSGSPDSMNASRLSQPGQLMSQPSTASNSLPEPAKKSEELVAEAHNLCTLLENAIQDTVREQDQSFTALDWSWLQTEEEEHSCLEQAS

The next series has as its target Cytochrome P450 2C19 (Homo sapiens, UniProt P33261). In words: Inhibition of CYP2C19. In kind it is ADME.
In series [11] the target is cAMP-dependent protein kinase (PKA) (Homo sapiens, UniProt P22694+P17612+P22612). In words: Inhibition of PKA. The format is protein assay.
Another series deals with T3, Cytochrome P450 1A2 (Homo sapiens, UniProt P05177).
T3 sequence (P05177 whole entry): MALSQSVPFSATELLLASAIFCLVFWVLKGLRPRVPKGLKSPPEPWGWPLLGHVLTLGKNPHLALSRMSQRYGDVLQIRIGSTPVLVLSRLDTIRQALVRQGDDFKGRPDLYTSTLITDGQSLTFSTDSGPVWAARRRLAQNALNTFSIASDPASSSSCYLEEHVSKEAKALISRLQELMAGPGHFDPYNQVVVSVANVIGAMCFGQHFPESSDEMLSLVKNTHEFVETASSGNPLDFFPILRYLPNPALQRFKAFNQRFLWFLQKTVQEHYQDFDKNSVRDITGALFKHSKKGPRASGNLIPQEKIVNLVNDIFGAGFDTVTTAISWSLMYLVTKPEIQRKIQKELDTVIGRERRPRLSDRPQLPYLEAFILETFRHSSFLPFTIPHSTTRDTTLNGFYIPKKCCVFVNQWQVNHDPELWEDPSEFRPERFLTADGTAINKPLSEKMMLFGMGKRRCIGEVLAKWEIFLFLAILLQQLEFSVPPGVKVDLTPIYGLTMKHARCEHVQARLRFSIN
In words: Inhibition of CYP1A2. In kind it is ADME.

Converted amounts (≈) assume the structure as drawn.

Chain of Cytochrome P450 2C19 (P33261 whole entry): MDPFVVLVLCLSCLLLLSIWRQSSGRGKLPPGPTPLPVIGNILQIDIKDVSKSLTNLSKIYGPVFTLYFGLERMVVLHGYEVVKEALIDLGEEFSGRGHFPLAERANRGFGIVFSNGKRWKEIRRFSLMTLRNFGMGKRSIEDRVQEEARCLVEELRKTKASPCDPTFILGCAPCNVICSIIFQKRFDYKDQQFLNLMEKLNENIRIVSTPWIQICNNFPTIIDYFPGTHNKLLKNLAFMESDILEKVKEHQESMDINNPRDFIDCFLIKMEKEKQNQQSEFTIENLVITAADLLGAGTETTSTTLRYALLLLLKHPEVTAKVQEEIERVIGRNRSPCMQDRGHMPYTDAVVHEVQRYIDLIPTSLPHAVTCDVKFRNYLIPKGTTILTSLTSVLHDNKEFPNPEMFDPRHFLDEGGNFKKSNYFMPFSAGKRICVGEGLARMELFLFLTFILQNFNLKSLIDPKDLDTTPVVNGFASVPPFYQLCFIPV
Chain of Cytochrome P450 3A4 (P08684 whole entry): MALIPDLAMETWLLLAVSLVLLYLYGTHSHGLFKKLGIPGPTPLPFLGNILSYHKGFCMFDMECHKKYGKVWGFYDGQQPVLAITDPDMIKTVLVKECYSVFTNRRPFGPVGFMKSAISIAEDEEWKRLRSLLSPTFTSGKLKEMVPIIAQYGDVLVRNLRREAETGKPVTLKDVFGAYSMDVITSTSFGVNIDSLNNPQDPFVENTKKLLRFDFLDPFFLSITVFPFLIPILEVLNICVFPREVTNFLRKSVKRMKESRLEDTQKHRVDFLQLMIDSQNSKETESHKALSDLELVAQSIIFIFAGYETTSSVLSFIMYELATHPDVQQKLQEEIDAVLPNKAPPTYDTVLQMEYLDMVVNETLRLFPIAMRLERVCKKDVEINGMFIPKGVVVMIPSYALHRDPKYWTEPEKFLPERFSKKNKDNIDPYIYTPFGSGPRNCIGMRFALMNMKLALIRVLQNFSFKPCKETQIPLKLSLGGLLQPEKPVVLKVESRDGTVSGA
Chain of Cytochrome P450 2C9 (P11712 whole entry): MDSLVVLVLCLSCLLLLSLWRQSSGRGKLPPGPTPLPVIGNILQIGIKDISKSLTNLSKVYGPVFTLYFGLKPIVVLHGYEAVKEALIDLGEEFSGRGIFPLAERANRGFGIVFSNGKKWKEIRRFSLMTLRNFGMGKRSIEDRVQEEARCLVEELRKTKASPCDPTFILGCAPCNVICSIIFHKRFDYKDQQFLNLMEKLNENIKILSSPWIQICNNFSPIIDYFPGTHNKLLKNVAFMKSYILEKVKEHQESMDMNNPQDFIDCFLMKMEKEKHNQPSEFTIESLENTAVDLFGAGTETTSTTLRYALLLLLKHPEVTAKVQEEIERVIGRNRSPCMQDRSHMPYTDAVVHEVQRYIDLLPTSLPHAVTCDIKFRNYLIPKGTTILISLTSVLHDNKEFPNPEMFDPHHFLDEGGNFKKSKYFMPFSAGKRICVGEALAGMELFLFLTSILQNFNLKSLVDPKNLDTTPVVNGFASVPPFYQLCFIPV

Take `Cc1cc(C)c2c(N)c(C(N)=O)sc2n1`: the inhibition at 10 µM in [1] was found to be 45%; in series [8], 42%. In addition, in series [2], the Papp A→B worked out at 13.6 ×10⁻⁶ cm/s. Also, the results for the Activity in the series with HeLa [3] and with HeLa [5] were 100% and 68%, respectively. Further, the IC50 is 4.1 µM in series [4]; greater than 30 µM against Cytochrome P450 2D6; greater than 30 µM at Cytochrome P450 3A4; 2.8 µM in series [7]; greater than 30 µM on Cytochrome P450 2C9; 2.2 µM in [10]. Further, the half-inhibitory concentration (IC50) against Cytochrome P450 2C19 was greater than 30 µM; in series [11], 27 µM; against Cytochrome P450 1A2, greater than 30 µM. In series [6], this compound had a solubility of 24 µg/mL (≈ 108 µM). Further, the half-life in series [9] amounted to 1.3 h.
